Source: PMC9090415, “Discovery of small molecule inhibitors of Plasmodium falciparum apicoplast DNA polymerase” (Journal of Enzyme Inhibition and Medicinal Chemistry, 2022)

Target: P. falciparum apicoplast DNA polymerase (Pf-apPOL) (Plasmodium falciparum, UniProt Q8ILY1)
Experiment: Fluorescence-based high-throughput DNA polymerase assay (molecular beacon), primary screen and dose-response;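 as to % inhibition ApPOL 90': test concentration in µM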;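 as to % inhibition Apol 40': compound concentration given in µM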;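 as to % inhibition apPOL 180': test concentration in µM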
Format: biochemical
Details: for DNA Pol: 90 min, 10 µM
How it was run: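 Single-point screening used 10 µM compound with 20 nM polymerase, 20 nM hairpin substrate and 6 µM dNTPs for 90 min at 25 °C. Confirmatory titrations (2.5–80 µM) followed fluorescence at three times, and IC50 was derived from a fit including a cooperativity term n.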

[1] = 'DNA Pol' of the 186 hits list (primary screen value)

Chain of P. falciparum apicoplast DNA polymerase (Pf-apPOL) (Q8ILY1 entry or part of it): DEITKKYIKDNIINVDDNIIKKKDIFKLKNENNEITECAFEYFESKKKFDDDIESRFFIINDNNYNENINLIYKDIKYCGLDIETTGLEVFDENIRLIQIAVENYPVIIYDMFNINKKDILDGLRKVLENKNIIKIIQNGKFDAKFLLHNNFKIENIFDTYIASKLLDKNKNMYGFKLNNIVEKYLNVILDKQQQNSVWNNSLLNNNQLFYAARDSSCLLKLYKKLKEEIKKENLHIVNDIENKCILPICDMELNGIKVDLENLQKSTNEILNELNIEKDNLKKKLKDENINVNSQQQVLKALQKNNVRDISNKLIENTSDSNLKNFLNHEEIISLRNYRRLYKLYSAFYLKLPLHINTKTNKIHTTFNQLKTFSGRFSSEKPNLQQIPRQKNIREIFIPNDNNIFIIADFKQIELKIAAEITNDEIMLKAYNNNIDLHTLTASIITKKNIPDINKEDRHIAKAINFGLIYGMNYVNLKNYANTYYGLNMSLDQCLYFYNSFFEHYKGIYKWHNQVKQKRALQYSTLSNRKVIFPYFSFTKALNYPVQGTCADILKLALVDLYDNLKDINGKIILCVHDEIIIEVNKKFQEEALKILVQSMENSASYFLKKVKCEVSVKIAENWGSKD

## Cc1ccccc1C(=O)N1CCc2c(nc3cc(-c4ccccc4)[nH]n3c2=O)C1 [Molecule 41, Cc1ccccc1C(=O)N1CCc2c(C1)nc1n(c2=O)[nH]c(c1)c1ccccc1]
[1]
  DNA Pol: 47
DNA Pol (primary screen value)
  DNA Pol: 47
DRC-1, concentration 2.5
  % inhibition Apo pol 10': 6.184%
  % inhibition Apol 90': 1.828%
  % inhibition apPOL 180': -1.511%
DRC-1, concentration 5
  % inhibition Apo pol 10': 10.1754%
  % inhibition Apol 90': 3.445%
  % inhibition apPOL 180': -3.248%
DRC-1, concentration 10
  % inhibition Apo pol 10': 45.445%
  % inhibition Apol 90': 31.8176%
  % inhibition apPOL 180': 20.9007%
DRC-1, concentration 20
  % inhibition Apo pol 10': 74.5975%
  % inhibition Apol 90': 59.5671%
  % inhibition apPOL 180': 43.9765%
DRC-1, concentration 40
  % inhibition Apo pol 10': 80.8347%
  % inhibition Apol 90': 74.5448%
  % inhibition apPOL 180': 64.8377%
DRC-1, concentration 80
  % inhibition Apo pol 10': 67.5135%
  % inhibition Apol 90': 71.589%
  % inhibition apPOL 180': 65.5415%
DRC-2, concentration 2.5
  % inhibition Apo pol 5': 7%
  % inhibition Apol 40': 9%
  % inhibition ApPOL 90': 8%
  % inhibition apPOL 180': 4.5%
DRC-2, concentration 5
  % inhibition Apo pol 5': 8%
  % inhibition Apol 40': 5.58%
  % inhibition ApPOL 90': 5%
  % inhibition apPOL 180': 1.21%
DRC-2, concentration 10
  % inhibition Apo pol 5': 20%
  % inhibition Apol 40': 22%
  % inhibition ApPOL 90': 21%
  % inhibition apPOL 180': 16%
DRC-2, concentration 20
  % inhibition Apo pol 5': 17%
  % inhibition Apol 40': 18%
  % inhibition ApPOL 90': 17%
  % inhibition apPOL 180': 9%
DRC-2, concentration 40
  % inhibition Apo pol 5': 46%
  % inhibition Apol 40': 61%
  % inhibition ApPOL 90': 61%
  % inhibition apPOL 180': 55%
DRC-2, concentration 80
  % inhibition Apo pol 5': 29%
  % inhibition Apol 40': 54%
  % inhibition ApPOL 90': 59%
  % inhibition apPOL 180': 58%

## CC(=O)c1cc2c(N)c(/C(N)=N/C#N)sc2nc1C [KU0015866]
[1]
  DNA Pol: 33
DNA Pol (primary screen value)
  DNA Pol: 33
DRC-1, concentration 2.5
  % inhibition Apo pol 10': 6.515%
  % inhibition Apol 90': -0.6957%
  % inhibition apPOL 180': -1.629%
DRC-1, concentration 5
  % inhibition Apo pol 10': 12.7693%
  % inhibition Apol 90': -1.631%
  % inhibition apPOL 180': -5.477%
DRC-1, concentration 10
  % inhibition Apo pol 10': 31.7983%
  % inhibition Apol 90': 8.506%
  % inhibition apPOL 180': 0.782%
DRC-1, concentration 20
  % inhibition Apo pol 10': 44.0355%
  % inhibition Apol 90': 14.7865%
  % inhibition apPOL 180': 3.3611%
DRC-1, concentration 40
  % inhibition Apo pol 10': 64.9344%
  % inhibition Apol 90': 35.058%
  % inhibition apPOL 180': 18.0593%
DRC-1, concentration 80
  % inhibition Apo pol 10': 81.2768%
  % inhibition Apol 90': 75.8739%
  % inhibition apPOL 180': 70.7811%
DRC-2, concentration 2.5
  % inhibition Apo pol 5': 7%
  % inhibition Apol 40': 6%
  % inhibition ApPOL 90': 4.51%
  % inhibition apPOL 180': -4.65%
DRC-2, concentration 5
  % inhibition Apo pol 5': 12%
  % inhibition Apol 40': 4.46%
  % inhibition ApPOL 90': 1.44%
  % inhibition apPOL 180': -9%
DRC-2, concentration 10
  % inhibition Apo pol 5': 28%
  % inhibition Apol 40': 19%
  % inhibition ApPOL 90': 14%
  % inhibition apPOL 180': -0.253%
DRC-2, concentration 20
  % inhibition Apo pol 5': 37%
  % inhibition Apol 40': 33%
  % inhibition ApPOL 90': 25%
  % inhibition apPOL 180': 10%
DRC-2, concentration 40
  % inhibition Apo pol 5': 40%
  % inhibition Apol 40': 48%
  % inhibition ApPOL 90': 45%
  % inhibition apPOL 180': 34%
DRC-2, concentration 80
  % inhibition Apo pol 5': 37%
  % inhibition Apol 40': 55%
  % inhibition ApPOL 90': 56%
  % inhibition apPOL 180': 54%

## O=c1[nH]c2ccc([N+](=O)[O-])cc2c(-c2ccccc2)c1Sc1nc2ccccc2o1 [KU0067471]
[1]
  DNA Pol: 28
DNA Pol (primary screen value)
  DNA Pol: 28
DRC-1, concentration 2.5
  % inhibition Apo pol 10': 11.1433%
  % inhibition Apol 90': 8.412%
  % inhibition apPOL 180': 7.341%
DRC-1, concentration 5
  % inhibition Apo pol 10': 11.3784%
  % inhibition Apol 90': 5.979%
  % inhibition apPOL 180': 3.743%
DRC-1, concentration 10
  % inhibition Apo pol 10': 23.2925%
  % inhibition Apol 90': 13.3902%
  % inhibition apPOL 180': 8.363%
DRC-1, concentration 20
  % inhibition Apo pol 10': 44.3997%
  % inhibition Apol 90': 30.6503%
  % inhibition apPOL 180': 19.4729%
DRC-1, concentration 40
  % inhibition Apo pol 10': 71.988%
  % inhibition Apol 90': 58.6016%
  % inhibition apPOL 180': 44.0566%
DRC-1, concentration 80
  % inhibition Apo pol 10': 85.2168%
  % inhibition Apol 90': 77.507%
  % inhibition apPOL 180': 66.9195%
DRC-2, concentration 2.5
  % inhibition Apo pol 5': 9%
  % inhibition Apol 40': 7%
  % inhibition ApPOL 90': 5%
  % inhibition apPOL 180': -0.297%
DRC-2, concentration 5
  % inhibition Apo pol 5': 12%
  % inhibition Apol 40': 9%
  % inhibition ApPOL 90': 7%
  % inhibition apPOL 180': -0.499%
DRC-2, concentration 10
  % inhibition Apo pol 5': 26%
  % inhibition Apol 40': 24%
  % inhibition ApPOL 90': 20%
  % inhibition apPOL 180': 10%
DRC-2, concentration 20
  % inhibition Apo pol 5': 42%
  % inhibition Apol 40': 43%
  % inhibition ApPOL 90': 40%
  % inhibition apPOL 180': 26%
DRC-2, concentration 40
  % inhibition Apo pol 5': 59%
  % inhibition Apol 40': 65%
  % inhibition ApPOL 90': 65%
  % inhibition apPOL 180': 57%
DRC-2, concentration 80
  % inhibition Apo pol 5': 60%
  % inhibition Apol 40': 72%
  % inhibition ApPOL 90': 73%
  % inhibition apPOL 180': 72%
